Laboratory results published in US20110039721A1, “METHOD FOR PREDICTION ABOUT CARCINOGENICITY OF SUBSTANCE IN RODENT” (Chemicals Evaluation and Research Institute, priority 2007, published 2011).
Like-named read-outs stand apart in the source and are kept apart here.

Tests used:
[1] = test system: mRNA expressed from the genes (A) to (D) in rat liver; test: Behavior of genes (mRNA expression level, oligo-DNA microarray) in rat liver after 28-day oral administration; type: in vivo; conditions: for Behavior of gene caused by administration of chemical substance, Gene No. 4846 / Behavior of gene caused by administration of chemical substance, Gene No. 2026 / Behavior of gene caused by administration of chemical substance, Gene No. 4218 / Behavior of gene caused by administration of chemical substance, Gene No. 6182 / Behavior of gene caused by administration of chemical substance, Gene No. 5600: gene group (A); for Behavior of gene caused by administration of chemical substance, Gene No. 4846: Unigene No. Rn.144554; for Behavior of gene caused by administration of chemical substance, Gene No. 2026 / Behavior of gene caused by administration of chemical substance, Gene No. 4218: Unigene No. Rn.167075; for Behavior of gene caused by administration of chemical substance, Gene No. 6182: Unigene No. Rn.5834; for Behavior of gene caused by administration of chemical substance, Gene No. 5600: Unigene No. Rn.9836; for Behavior of gene caused by administration of chemical substance, Gene No. 1494 / Behavior of gene caused by administration of chemical substance, Gene No. 2045 / Behavior of gene caused by administration of chemical substance, Gene No. 2203: gene group (B); for Behavior of gene caused by administration of chemical substance, Gene No. 1494: Unigene No. Rn.1430; for Behavior of gene caused by administration of chemical substance, Gene No. 2045: Unigene No. Rn.19329; for Behavior of gene caused by administration of chemical substance, Gene No. 2203: Unigene No. Rn.21240; for Behavior of gene caused by administration of chemical substance, Gene No. 533 / Behavior of gene caused by administration of chemical substance, Gene No. 725 / Behavior of gene caused by administration of chemical substance, Gene No. 1163 / Behavior of gene caused by administration of chemical substance, Gene No. 4973 / Behavior of gene caused by administration of chemical substance, Gene No. 4095 / Behavior of gene caused by administration of chemical substance, Gene No. 1334 / Behavior of gene caused by administration of chemical substance, Gene No. 6620 / Behavior of gene caused by administration of chemical substance, Gene No. 6303 / Behavior of gene caused by administration of chemical substance, Gene No. 5878 / Behavior of gene caused by administration of chemical substance, Gene No. 1131 / Behavior of gene caused by administration of chemical substance, Gene No. 1562 / Behavior of gene caused by administration of chemical substance, Gene No. 1741 / Behavior of gene caused by administration of chemical substance, Gene No. 893 / Behavior of gene caused by administration of chemical substance, Gene No. 6026 / Behavior of gene caused by administration of chemical substance, Gene No. 154 / Behavior of gene caused by administration of chemical substance, Gene No. 1993 / Behavior of gene caused by administration of chemical substance, Gene No. 813 / Behavior of gene caused by administration of chemical substance, Gene No. 2494 / Behavior of gene caused by administration of chemical substance, Gene No. 2546 / Behavior of gene caused by administration of chemical substance, Gene No. 3776 / Behavior of gene caused by administration of chemical substance, Gene No. 3929 / Behavior of gene caused by administration of chemical substance, Gene No. 1119 / Behavior of gene caused by administration of chemical substance, Gene No. 6742 / Behavior of gene caused by administration of chemical substance, Gene No. 5634: gene group (C); for Behavior of gene caused by administration of chemical substance, Gene No. 533: Unigene No. Rn.106184; for Behavior of gene caused by administration of chemical substance, Gene No. 725: Unigene No. Rn.108075; for Behavior of gene caused by administration of chemical substance, Gene No. 1163: Unigene No. Rn.11766; for Behavior of gene caused by administration of chemical substance, Gene No. 4973: Unigene No. Rn.118529; for Behavior of gene caused by administration of chemical substance, Gene No. 4095: Unigene No. Rn.119024; for Behavior of gene caused by administration of chemical substance, Gene No. 1334 / Behavior of gene caused by administration of chemical substance, Gene No. 6620: Unigene No. Rn.120914; for Behavior of gene caused by administration of chemical substance, Gene No. 6303: Unigene No. Rn.123063; for Behavior of gene caused by administration of chemical substance, Gene No. 5878: Unigene No. Rn.143213; for Behavior of gene caused by administration of chemical substance, Gene No. 1131: Unigene No. Rn.144946; for Behavior of gene caused by administration of chemical substance, Gene No. 1562: Unigene No. Rn.14744; for Behavior of gene caused by administration of chemical substance, Gene No. 1741: Unigene No. Rn.1647; for Behavior of gene caused by administration of chemical substance, Gene No. 893: Unigene No. Rn.164817; for Behavior of gene caused by administration of chemical substance, Gene No. 6026: Unigene No. Rn.167685; for Behavior of gene caused by administration of chemical substance, Gene No. 154: Unigene No. Rn.185941; for Behavior of gene caused by administration of chemical substance, Gene No. 1993: Unigene No. Rn.18728; for Behavior of gene caused by administration of chemical substance, Gene No. 813: Unigene No. Rn.201760; for Behavior of gene caused by administration of chemical substance, Gene No. 2494: Unigene No. Rn.23969; for Behavior of gene caused by administration of chemical substance, Gene No. 2546: Unigene No. Rn.24561; for Behavior of gene caused by administration of chemical substance, Gene No. 3776: Unigene No. Rn.43232; for Behavior of gene caused by administration of chemical substance, Gene No. 3929: Unigene No. Rn.4620; for Behavior of gene caused by administration of chemical substance, Gene No. 1119: Unigene No. Rn.9757; for Behavior of gene caused by administration of chemical substance, Gene No. 6742: Unigene No. Rn.9779; for Behavior of gene caused by administration of chemical substance, Gene No. 5634: Unigene No. Rn.9862; for Behavior of gene caused by administration of chemical substance, Gene No. 5726: gene group (D), Unigene No. Rn.9939
Summary of the method: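 Groups of four male F344 SPF rats aged 5 weeks are gavaged once a day for 28 days with test chemical in solvent or with solvent alone at equal volume. Total RNA comes from liver taken on day 28. Fold change of 1.5 or 1/1.5 versus control, directionally consistent, defines significance.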

liver = conditions: cited from earlier work
rodent = conditions: classification of the substance (C+/C−); cited from earlier work
[2] = classification of the substance (M+/M−); cited from earlier work

Row | Structure (SMILES) | Behavior of gene caused by administration of chemical substance, Gene No. 4846 [1] | Behavior of gene caused by administration of chemical substance, Gene No. 2026 [1] | Behavior of gene caused by administration of chemical substance, Gene No. 4218 [1] | Behavior of gene caused by administration of chemical substance, Gene No. 6182 [1] | Behavior of gene caused by administration of chemical substance, Gene No. 5600 [1] | Behavior of gene caused by administration of chemical substance, Gene No. 1494 [1] | Behavior of gene caused by administration of chemical substance, Gene No. 2045 [1] | Behavior of gene caused by administration of chemical substance, Gene No. 2203 [1] | Behavior of gene caused by administration of chemical substance, Gene No. 533 [1] | Behavior of gene caused by administration of chemical substance, Gene No. 725 [1] | Behavior of gene caused by administration of chemical substance, Gene No. 1163 [1] | Behavior of gene caused by administration of chemical substance, Gene No. 4973 [1] | Behavior of gene caused by administration of chemical substance, Gene No. 4095 [1] | Behavior of gene caused by administration of chemical substance, Gene No. 1334 [1] | Behavior of gene caused by administration of chemical substance, Gene No. 6620 [1] | Behavior of gene caused by administration of chemical substance, Gene No. 6303 [1] | Behavior of gene caused by administration of chemical substance, Gene No. 5878 [1] | Behavior of gene caused by administration of chemical substance, Gene No. 1131 [1] | Behavior of gene caused by administration of chemical substance, Gene No. 1562 [1] | Behavior of gene caused by administration of chemical substance, Gene No. 1741 [1] | further results
1 | Nc1ccc([N+](=O)[O-])cc1N [TS035, 4-Nitro-o-phenylenediamine] | − | + | − | − | − | + | − | − | + | + | + | − | − | + | + | + | − | − | − | + | Behavior of gene caused by administration of chemical substance, Gene No. 893 [1]: −; Behavior of gene caused by administration of chemical substance, Gene No. 6026 [1]: −; Behavior of gene caused by administration of chemical substance, Gene No. 154 [1]: −; Behavior of gene caused by administration of chemical substance, Gene No. 1993 [1]: +; Behavior of gene caused by administration of chemical substance, Gene No. 813 [1]: +; Behavior of gene caused by administration of chemical substance, Gene No. 2494 [1]: −; Behavior of gene caused by administration of chemical substance, Gene No. 2546 [1]: +; Behavior of gene caused by administration of chemical substance, Gene No. 3776 [1]: −; Behavior of gene caused by administration of chemical substance, Gene No. 3929 [1]: −; Behavior of gene caused by administration of chemical substance, Gene No. 1119 [1]: −; Behavior of gene caused by administration of chemical substance, Gene No. 6742 [1]: −; Behavior of gene caused by administration of chemical substance, Gene No. 5634 [1]: +; Behavior of gene caused by administration of chemical substance, Gene No. 5726 [1]: −; Liver carcinogenicity (liver; in vivo): Cr−; Carcinogenicity (rodent): C−; Mutagenicity by Ames test [2]: M+
2 | ClC(Cl)(Cl)Cl [TS003, Carbon tetrachloride] | + | + | + | + | + | + | + | + | + | − | + | + | − | − | − | − | − | − | − | + | Behavior of gene caused by administration of chemical substance, Gene No. 893 [1]: −; Behavior of gene caused by administration of chemical substance, Gene No. 6026 [1]: −; Behavior of gene caused by administration of chemical substance, Gene No. 154 [1]: +; Behavior of gene caused by administration of chemical substance, Gene No. 1993 [1]: −; Behavior of gene caused by administration of chemical substance, Gene No. 813 [1]: −; Behavior of gene caused by administration of chemical substance, Gene No. 2494 [1]: −; Behavior of gene caused by administration of chemical substance, Gene No. 2546 [1]: −; Behavior of gene caused by administration of chemical substance, Gene No. 3776 [1]: −; Behavior of gene caused by administration of chemical substance, Gene No. 3929 [1]: −; Behavior of gene caused by administration of chemical substance, Gene No. 1119 [1]: −; Behavior of gene caused by administration of chemical substance, Gene No. 6742 [1]: −; Behavior of gene caused by administration of chemical substance, Gene No. 5634 [1]: −; Behavior of gene caused by administration of chemical substance, Gene No. 5726 [1]: −; Liver carcinogenicity (liver; classification of the substance (Cr+/Cr−)): Cr+; Carcinogenicity (rodent): C+; Mutagenicity by Ames test [2]: M−
